# Laboratory results as given in US4678775A, “Method of controlling pests” (priority 1984, dated 1987).
# Experiments:
# [1] = tested on: tobacco hornworms (Manducca sexta); assay: In vivo leaf test (antifeeding) on tomato leaves with tobacco hornworm larvae; conditions: for effect of addition of IBMX on antifeeding / pesticidal activity: with PDE inhibitor IBMX
# [2] = tested on: isolated tails of Photinus males; assay: Stimulation of light production after injection into transected, isolated firefly tails; format: in vivo; conditions: for EC50 for stimulated light emission: injected into isolated tails
# [3] = target: T1, Beta1 and Beta2-adrenergic-stimulated adenylate cyclase in rat liver (Rattus norvegicus, UniProt P10608); assay: Adenylate cyclase stimulation in rat liver; format: biochemical
# T1 construct: adenylate cyclase in rat heart and liver; from tissue; host or cells: rat liver
# T1 sequence (P10608 whole entry): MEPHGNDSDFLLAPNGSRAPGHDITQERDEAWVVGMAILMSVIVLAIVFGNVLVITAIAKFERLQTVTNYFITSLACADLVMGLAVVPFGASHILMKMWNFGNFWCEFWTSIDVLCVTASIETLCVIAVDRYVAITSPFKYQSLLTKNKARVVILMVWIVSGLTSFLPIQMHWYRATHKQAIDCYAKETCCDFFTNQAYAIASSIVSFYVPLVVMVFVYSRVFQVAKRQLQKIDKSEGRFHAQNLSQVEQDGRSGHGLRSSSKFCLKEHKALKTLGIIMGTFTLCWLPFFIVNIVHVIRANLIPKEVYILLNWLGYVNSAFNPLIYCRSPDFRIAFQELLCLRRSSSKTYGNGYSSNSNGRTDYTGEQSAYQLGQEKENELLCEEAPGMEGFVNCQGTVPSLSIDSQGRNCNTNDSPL
# [4] = target: T2, dopamine-sensitive adenylate cyclase in rat caudate nucleus (Rattus norvegicus, UniProt P18901); assay: Adenylate cyclase stimulation in rat caudate nucleus; format: biochemical
# T2 construct: in the rat caudate nucleus; from tissue; host or cells: rat caudate nucleus
# T2 sequence (P18901 whole entry): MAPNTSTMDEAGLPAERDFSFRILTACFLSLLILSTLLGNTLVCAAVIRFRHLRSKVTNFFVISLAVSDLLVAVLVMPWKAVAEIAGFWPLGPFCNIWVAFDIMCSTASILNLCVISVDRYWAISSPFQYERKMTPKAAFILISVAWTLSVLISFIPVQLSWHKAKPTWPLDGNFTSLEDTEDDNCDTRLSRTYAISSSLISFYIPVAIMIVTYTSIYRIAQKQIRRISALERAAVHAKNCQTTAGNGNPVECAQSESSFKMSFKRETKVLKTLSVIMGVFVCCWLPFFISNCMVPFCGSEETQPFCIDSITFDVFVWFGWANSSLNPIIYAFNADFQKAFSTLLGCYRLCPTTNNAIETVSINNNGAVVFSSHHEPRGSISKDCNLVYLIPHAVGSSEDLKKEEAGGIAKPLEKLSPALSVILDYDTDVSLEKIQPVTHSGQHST
# [5] = tested on: adenylate cyclase in nerve cord of tobacco hornworm; assay: Adenylate cyclase activation in broken cell preparations of tobacco hornworm nerve cord; format: biochemical, tobacco hornworm (Manducca sexta)
# Protocol: Otherwise, the procedure is identical to that described above.
# The tissue is homogenized (usually 15 mg/ml) as above in 6 mM Tris maleate, pH 7.4. […] This is done to cancel out the effects of dopamine and serotonin receptors which are usually present in nerve cord.
# As detailed previously, the adenylate cyclase assay, either in the firefly or in other insect pest, is also used to identify a direct stimulator of adenylate cyclase.
# [6] = tested on: octopamine-sensitive adenylate cyclase; conditions: Nathanson et al. 1981; cited from earlier work
# [7] = target: T3, Beta1 and Beta2-adrenergic-stimulated adenylate cyclase in rat heart (Rattus norvegicus, UniProt P18090); assay: Adenylate cyclase stimulation in rat heart; format: biochemical
# T3 construct: adenylate cyclase in rat heart and liver; from tissue; host or cells: rat heart
# T3 sequence (P18090 whole entry): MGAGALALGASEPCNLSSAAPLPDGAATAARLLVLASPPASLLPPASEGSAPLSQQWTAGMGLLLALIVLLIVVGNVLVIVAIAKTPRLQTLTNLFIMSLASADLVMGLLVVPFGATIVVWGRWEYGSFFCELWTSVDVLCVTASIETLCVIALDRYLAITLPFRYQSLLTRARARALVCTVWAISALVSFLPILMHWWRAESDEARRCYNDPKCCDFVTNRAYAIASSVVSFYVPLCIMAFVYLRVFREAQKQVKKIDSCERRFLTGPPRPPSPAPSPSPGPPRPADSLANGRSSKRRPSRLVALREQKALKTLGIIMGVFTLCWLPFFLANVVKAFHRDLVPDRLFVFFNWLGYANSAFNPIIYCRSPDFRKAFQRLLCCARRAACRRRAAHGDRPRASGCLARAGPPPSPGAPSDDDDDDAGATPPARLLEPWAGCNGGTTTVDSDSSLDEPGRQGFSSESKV
# [8] = tested on: Beta1 and Beta2-adrenergic-stimulated adenylate cyclase in rat heart; assay: Adenylate cyclase stimulation in rat heart; format: biochemical
# [9] = tested on: octopamine-sensitive adenylate cyclase; assay: Activation of octopamine-sensitive adenylate cyclase, firefly light organ broken cell preparation; format: biochemical, Photinus pyralis
# [10] = tested on: Beta1 and Beta2-adrenergic-stimulated adenylate cyclase in rat liver; assay: Adenylate cyclase stimulation in rat liver; format: biochemical
# [11] = tested on: adenylate cyclase in the firefly lantern; assay: Direct activation of adenylate cyclase in firefly lantern (forskolin); format: biochemical, Photinus pyralis; conditions: FIG. 2, firefly lantern
# From the text: The second type of pest controlling compounds (2) useable in the present compositions are direct stimulators of the pest enzyme adenylate cyclase. These compounds bypass the receptor, and interact with one or another of the associated catalytic or regulatory subunits of adenylate cyclase, thereby stimulating the formation of cyclic AMP. Suitable compounds can be determined from assay of pest adenylate cyclase as described above.
# Specimens of Photinus pyralis were collected in summer, frozen on dry ice, and stored at -90°. […] For each experiment, a number of insects were thawed and maintained at 4° C. […]
# Adenylate cyclase activation by test compounds was measured in test tubes containing (in 0.3 ml) 80 mM Tris-maleate, pH 7.4; 10 mM theophylline; 8 mM MgCl2; 0.1 mM GTP; 0.5 mM ethylene glycol bis(beta-aminoethyl ether)-N,N,N',N'-tetraacetic acid; 2 mM ATP; 0.06 ml of P2 fractions; and the various compounds to be tested. Prior experiments had determined that, under these conditions, octopamine-sensitive adenylate cyclase activity is optimized. […] Cyclic AMP in the supernatant was measured by protein-binding assay, according to the method of Brown et al., Adv. […] Protein concentration was determined by the method of Lowry et al., Journal of Biological Chemistry 193: 265-275 (1951). […]
# [12] = Cyclic AMP analogue remaining after incubation with nerve cord homogenate; format: in vitro ADME, tobacco hornworm; conditions: in vitro 4 hours; IBMX 0.1 mM; FIG. 7
# Protocol: It has been previously shown, above, that PDE inhibition can increase the concentration of cyclic AMP in insect tissue. […] In order to do this, a fixed amount of butyl-benzylthio cyclic AMP was incubated in vitro for 4 hours in the presence of a tissue homogenated from tobacco hornworm nerve cord. In some tubes, IBMX (0.1 mM) was added to inhibit PDE. After the incubation, the amount of butyl-benzylthio cyclic AMP remaining was measured by protein binding assay (Brown et al., supra), using a standard curve based upon butyl-benzylthio cyclic AMP.
# [13] = FIG. 3, hornworm larvae nerve cord
smiles,measurement,setting,value
"NCC(O)c1ccc(O)cc1 (racemic) [octopamine, reference compound]",Ki for inhibition of feeding by the larvae,[1]; applied to leaves,0.5 mg/leaf
same,rank order antifeeding effectiveness,"[1]; based on the EC50 of the octopamine agonist, alone or +IBMX",DDCDM+IBMX=NC7+IBMX>Octopamine+IBMX=DDCDM alone>NC7 alone>octopamine alone
same,behaviour of larvae feeding on treated leaves,[1]; in vivo,"tremors, hyperactivity, and leaf walk-off behavior"
same,pesticidal activity,[1]; no IBMX,little pesticidal activity
same,effect of addition of IBMX on antifeeding / pesticidal activity,[1],considerably elevated both cyclic AMP content and pesticidal activity
same,EC50 for stimulated light emission,[2],about 5 nmoles/tail
same,stimulation of adenylate cyclase,[3],neither octopamine nor NC5 were active
same,stimulation of adenylate cyclase,[4],neither octopamine nor NC5 caused any significant enzyme stimulation
same,activation of adenylate cyclase in nerve cord,[5]; FIG. 1,potent activators
"CNC=Nc1ccc(Cl)cc1C [DCDM, N-demethylchlordimeform]",potency relative to octopamine as partial agonist of light organ octopamine-stimulated adenylate cyclase,[6],about six-fold more potent than octopamine
"CCc1cccc(CC)c1N=C1NCCN1 [NC 5, 2-(2,6-diethylphenylimino)imidazolidine]",stimulation of adenylate cyclase,[7],almost completely inactive
same,inhibition of basal adenylate cyclase activity,[8],In none of the three mammalian tissues did NC5 cause any inhibition
same,% Leaf Remaining,"[1]; Table 5, agonist 3 × 10^-1 gm/100 ml, IBMX 0.1 g/100 ml",70%
same,effect of addition of IBMX on antifeeding / pesticidal activity,[1],substantial increases in the potency
same,EC50 for stimulated light emission,[2],about 0.3 nmoles
same,times as potent as octopamine,[2]; light emission EC50,more than 16 times
same,Ka (half-maximal activation),[9],about 1 μM
same,Ka fold lower than that due to octopamine,[9],20 fold
same,maximal stimulation relative to octopamine,[9],equal to that caused by octopamine
same,Ka ratio to octopamine,"[9]; Table 2, clonidines",19.0
same,Vmax (% OCT),"[9]; Table 2, clonidines, N.A. = no activity",97 % OCT
same,activity as an octopamine antagonist,[9]; combinations of octopamine and NC5,no activity as an octopamine antagonist
same,lowest concentration with significant stimulation,[9]; unit not given,3×10^-8
same,stimulation of adenylate cyclase,[3],neither octopamine nor NC5 were active
same,inhibition of basal adenylate cyclase activity,[10],In none of the three mammalian tissues did NC5 cause any inhibition
same,inhibition of basal adenylate cyclase activity,[4],In none of the three mammalian tissues did NC5 cause any inhibition
same,stimulation of adenylate cyclase,[4],neither octopamine nor NC5 caused any significant enzyme stimulation
C=C[C@@]1(C)CC(=O)[C@]2(O)[C@@]3(C)[C@@H](O)CCC(C)(C)[C@@H]3[C@H](O)[C@H](OC(C)=O)[C@@]2(C)O1 [forskolin],antifeeding activity,"[1]; compound itself, in words",has antifeeding activity
same,effect of addition of IBMX on antifeeding / pesticidal activity,[1],enhanced
same,Ka ratio,[11],0.22
same,Vmax,[11],100%
same,Ka ratio,[5]; [13],0.20
same,Vmax,[5]; [13],about 100%
"CCCCNc1ncnc2c1nc(SCc1ccccc1)n2[C@@H]1O[C@@H]2COP(=O)(O)O[C@H]2[C@H]1O [n-butylaminobenzylthio cyclic AMP, 6-n-butylamino-8-benzylthio-cyclic AMP, reference compound]",antifeeding activity,"[1]; concentration of 1%, absence of IBMX",showed antifeeding activity
same,effect of addition of IBMX on antifeeding / pesticidal activity,[1],increased by addition of IBMX
same,"amount of cyclic AMP analogue present after 4 hours, with IBMX versus without",[12],more than doubled
